Columns and labels:
[1] = Surface roughness change (% R) of etched human enamel, 3D laser scanning confocal microscope; settings: Example 2, % R=(Rt−Re)/(Re)×100, four days of treatment, negative = smoother
Description: Human molar teeth are obtained, and the root portion of the molar is removed. The crown of the molar is cut longitudinally into slices 2 mm thick using a water-cooled low-speed diamond saw. The human enamel samples are then mounted in acrylic resin. The embedded samples are grinded and polished with a sequential series of wet 400 to 4000 grit silicon carbide papers and nylon adhesive backed discs with 0.25 micron diamond or colloidal silica coating. The polished slices are rinsed thoroughly with distilled water three times, sonicated in a water bath for five minutes, then rinsed again and allowed to air dry.
(§1) Etched enamel samples are prepared by treatment with 1% aqueous citric acid (pH 3.6) for 10 minutes, followed by rinsing with deionized water.
Etched human enamel samples are treated with 50 microliters of polyelectrolyte solutions A-F, or with control solutions, for ten minutes at room temperature. […]
In addition, surface roughness and morphology are evaluated using a 3D laser scanning confocal microscope. […] Roughness is therefore measured in units of micrometers. Values for roughness of the acid etched enamel sample (Re) and for the acid-etched enamel sample after treatment (Rt) are determined. Percentage of roughness (% R) is calculated as follows: % R=(Rt−Re)/(Re)×100

[2] = Knoop hardness repair (% HR) of acid-etched human enamel after treatment and remineralization
Procedure: KHN is determined using the Knoop microhardness tester. A baseline measurement is taken on a sound enamel sample without treatment (KHN0), on an acid-etched enamel sample (KHNe), and on an acid-etched enamel sample after treatment (KHNt). Each KHN measurement is the average of 5 indentations made on the same specimen at a force of 0.05 kg for 15 seconds. A value for Percentage of Hardness Repair (% HR) is calculated according to the following formula: % HR=(KHNt−KHNe)/(KHN0−KHNe)×100
Etched enamel samples are prepared by treatment with 1% aqueous citric acid (pH 3.6) for 10 minutes, followed by rinsing with deionized water. […]

[3] = Knoop hardness repair (% HR) of acid-etched bovine enamel after treatment and remineralization; settings: for % HR (Percentage Hardness Repair): bovine enamel, 40 microliters
Procedure: Bovine enamel blocks are obtained from sound bovine incisors without defects. The labial surface of the bovine teeth is cut to provide enamel specimens of about 3×3×2 mm in size. The enamel layer is about 1 mm thick and the dentin left in the specimen is about 1 mm thick.
as §1
Etched bovine enamel samples are treated with 50 microliters of polyelectrolyte solutions A-F, or with sodium fluoride solution or water, for ten minutes at room temperature. The samples are then rinsed with deionized water and then they are immersed in 50 mL of Remineralization Solution (0.2205 g/L CaCl2·2H2O, 0.1225 g/L KH2PO4, 9.6915 g/L KCl and 4.766 g/L HEPEs buffer, pH adjusted to 7 with NaOH) overnight at 37° C. The enamel samples are then rinsed with deionized water for 50 seconds and then air dried.
Knoop Hardness (KHN) is a measure of hardness of a material calculated by measuring the indentation produced by a diamond tip that is pressed onto the surface of a sample. Using a calibrated microscope, the area of the impression can be determined, and from the area of the indentation (D) in […], and the applied load (F) in kilograms force, the Knoop Hardness is calculated as: KHN=14.229(F/D^2). Knoop hardness has units of kgf/mm^2.
KHN is determined using the Knoop microhardness tester. […] A value for Percentage of Hardness Repair (% HR) is calculated according to the following formula: % HR=(KHNt−KHNe)/(KHN0−KHNe)×100
Bovine and human enamel blocks are prepared and treated with polyelectrolyte test solutions as described in Examples 1 and 2, respectively, except that 40 microliters of the polyelectrolyte solution are applied to the etched enamel surface, instead of 50 microliters. Koop Hardness (KHN) and Percentage Hardness Repair (% HR) are determined as described in Examples 1 and 2. […]

[4] = Step height repair of etched bovine enamel blocks (sound/damaged/repaired method, Keyence microscope)
Procedure: (§2) The left half of the block (“sound”) is covered using an acid-resistant nail polish, which is then allowed to air dry. The right half of the block (“damaged” and “repaired”) is then treated with 1% citric acid (pH 3.6) for ten minutes to etch the surface. After the treatment, the surface of the block is rinsed with deionized water. The top right corner of the block (“damaged”) is then covered with the same acid-resistant nail polish and air dried. The test formulation is then applied to the bottom right corner of the block (“repaired”), for example, for a ten-minute treatment, followed by rinsing with deionized water. Following the treatment, the enamel blocks are immersed in a Remineralization Solution (0.2205 g/L CaCl2·2H2O, 0.1225 g/L KH2PO4, 9.6915 g/L KCl and 4.766 g/L HEPEs buffer, pH adjusted to 7 with NaOH) overnight at 37° C., and the process repeated for 2-4 days (the blocks immersed daily in fresh remineralization solution). Following this, the blocks are removed, rinsed with deionized water and air dried. The nail polish covers are then removed using acetone solvent, and the surface of the enamel blocks is visualized, for example, by light microscopy, confocal laser scanning microscopy, scanning probe microscopy, or scanning electron microscopy. […]
(§3) Enamel repair is also evaluated using the method described in Example 4. […]

[5] = Gloss recovery (% GR) of acid-etched enamel, Novo-Curve glossmeter; design: species or system bovine; settings: Example 5
Procedure: Enamel repair is also evaluated using the method described in Example 4. A Keyence microscope is used to capture the surface morphology and to measure the step height of the treated samples. A Phenom ProX Desktop scanning electron microscope is used to observe the repaired enamel crystals. Bovine enable blocks are treated with either water, the sodium fluoride solution, or the 10 mg/mL ePL+0.06 mg/mL malic acid solution (Solution E above).
The effect of treatments on enamel appearance is also investigated by measuring the surface gloss and observing the surface under a microscope. The gloss values are measured using a Novo-Curve glossmeter. A glossmeter provides a quantifiable way of measuring gloss intensity, and the measurement relates to the amount of reflected light from a black glass standard with a defined refractive index. The ratio of reflected light for a test specimen, compared to the ratio for the gloss standard, is recorded as gloss units (GU). A gloss measurement of >70 GU is considered high gloss, while medium gloss is 10-70 GU, and low gloss is <10 GU.
A baseline measurement is taken on a sound enamel sample without treatment (G0), on an acid-etched enamel sample (Ge), and on an acid-etched enamel sample after treatment (Gt). The percentage of gloss recovery (% GR) is calculated according to the following formula: % GR=(Gt−Ge)/(G0−Ge)×100.

[6] = Scanning electron microscopy of enamel surface; settings: Example 5; bovine enamel blocks
Procedure: as §2, §3

[7] = Light microscopy of enamel surface morphology (sound/damaged/repaired method); settings: Example 5; bovine enamel blocks
Procedure: as §2, §3

Q: Which “% R (Percentage of roughness)” value [1] does the source give for `O=C(O)CC(O)C(=O)O` (stereo not drawn) [Malic acid, malic acid] here?
A: The value was −1.6%.

Q: And the “% HR (Percentage of Hardness Repair)” value ([2]; Example 2, 50 microliters for ten minutes, overnight remineralization, repeated daily for four days)?
A: Its value is 19.8%.

Q: With `[F-].[Na+]` [NaF, sodium fluoride] as the compound, how does the “% HR (Percentage of Hardness Repair)” value ([3]; Example 1, bovine enamel etched with 1% citric acid, 50 microliters for ten minutes, Remineralization Solution overnight at 37° C.) read?
A: The value was 27.9%.

Q: And the “% HR (Percentage Hardness Repair)” value ([3]; Example 3, solutions pH 7.0)?
A: Its value is 35.9%.

Q: And the “% HR (Percentage Hardness Repair)” value ([3]; Example 5, solutions about pH 6.0, 1 day of treatment)?
A: The value was 41.0%.

Q: What about the “restoration of enamel height in 3-D Keyence photomicrographs (FIG. 3)” value ([4]; Example 5) of the same compound?
A: The value was “do not restore the enamel to the original height”.

Q: What about the “% Repair (Step height)” value ([4]; Example 5, calculated from change in step height) of the same compound?
A: The value was 65.3%.

Q: And the “% GR (percentage of gloss recovery)” value ([5]; 2 days of remineralization)?
A: Its value is 12.7%.

Q: What about the “surface gloss recovery, in words” value ([5]; after 2 days of remineralization) of the same compound?
A: The value was “slightly better than water treatment”.

Q: And the “repair of gaps or cracks in the enamel surface by scanning electron microscopy” value [6]?
A: Its value is “some healing”.

Q: What about the “% HR (Percentage Hardness Repair)” value ([2]; Example 3, 40 microliters, solutions pH 7.0, 4 days of treatments) of the same compound?
A: The value was 49.3%.

Q: And the “surface morphology of the repaired side under the microscope (FIG. 2)” value [7]?
A: The value was “a clear interface between “damaged” and “repaired” sides is observed”.

Source: US12551429B2, “Oral care complexes and compositions” (Colgate-Palmolive Company, priority 2021, dated 2026)
